Results reported in ChEMBL document CHEMBL5241104, “Reactive metabolites of the anticonvulsant drugs and approaches to minimize the adverse drug reaction” (Eur J Med Chem, 2021).

Tests used:
Mus musculus [1] = assay: Anticonvulsant activity in Swiss albino mouse brain assessed as increase in GABA level at 30 mg/kg,ip measured after 2 hrs of post-administration by spectrophotometric method; assay type: functional
Mus musculus [2] = assay: Anticonvulsant activity in Swiss albino mouse assessed as protection against Sc-PTZ induced seizure at ip administration; assay type: functional
Mus musculus [3] = assay: Anticonvulsant activity in Swiss albino mouse assessed as protection against maximal electroshock induced seizure at ip administration; assay type: functional
[4] = Toxicity in Swiss albino mouse assessed as median toxicity dose at ip administration; assay type: organism-based; conditions: in vivo
Mus musculus [5] = assay: Anticonvulsant activity in Swiss albino mouse brain assessed as increase in GABA level at 30 mg/kg,ip measured after 7 days of post-administration by spectrophotometric method; assay type: functional; conditions: time 7 day
Mus musculus [6] = assay: Anticonvulsant activity in Albino mouse assessed as protection against maximal electroshock induced seizure at ip administration for 30 mins; assay type: functional; conditions: 0.5 h
Mus musculus [7] = assay: Anticonvulsant activity in CD-1 mouse assessed as protection against 6-Hz Psychomotor induced seizure at ip administration; assay type: functional
Mus musculus [8] = assay: Anticonvulsant activity in mouse assessed as inhibition of maximal electroshock induced seizure at 200 mg/kg,po administration for 120 mins; assay type: functional; conditions: 2 h
Mus musculus [9] = assay: Anticonvulsant activity in Swiss albino mouse assessed as protection against Sc-PTZ induced seizure at po administration; assay type: functional
[10] = Displacement of 3[H]BTX from rat cerebral cortical synaptosomes voltage-sensitive sodium channel incubated for 1.5 hrs by scintillation counting analysis; assay type: subcellular, Cerebral cortex, Synaptosome
Rattus norvegicus [11] = assay: Anticonvulsant activity in Wistar rat assessed as protection against maximal electroshock induced seizure at po administration; assay type: functional
Rattus norvegicus [12] = organism: Rattus norvegicus; assay: Inhibition of sodium uptake in rat cerebral cortical synaptosomes at 100 uM incubated for 30 mins by scintillation counting analysis; assay type: functional; conditions: Cerebral cortex, Synaptosome
Rattus norvegicus [13] = organism: Rattus norvegicus; assay: Inhibition of sodium uptake in rat cerebral cortical synaptosomes at 30 uM incubated for 30 mins by scintillation counting analysis; assay type: functional; conditions: Cerebral cortex, Synaptosome
Rattus norvegicus [14] = organism: Rattus norvegicus; assay: Inhibition of sodium uptake in rat cerebral cortical synaptosomes at 300 uM incubated for 30 mins by scintillation counting analysis; assay type: functional; conditions: Cerebral cortex, Synaptosome
Mus musculus [15] = assay: Anticonvulsant activity against bicuculline induced Swiss mouse seizure model assessed as inhibition of tonic seizures at 50 mg/kg,ip administration for 30 mins; assay type: functional; conditions: 0.5 h
Mus musculus [16] = assay: Anticonvulsant activity against 3-MP induced Swiss mouse seizure model assessed as inhibition of clonic seizures at 50 mg/kg,ip administration for 30 mins; assay type: functional; conditions: 0.5 h
[17] = Toxicity in 3-MP induced Swiss mouse seizure model assessed as death at 50 mg/kg,ip administration for 30 mins; assay type: organism-based; conditions: in vivo, read-out: Activity
Mus musculus [18] = assay: Anticonvulsant activity against 3-MP induced Swiss mouse seizure model assessed as inhibition of tonic seizures at 50 mg/kg,ip administration for 30 mins; assay type: functional; conditions: 0.5 h
Mus musculus [19] = assay: Anticonvulsant activity against bicuculline induced Swiss mouse seizure model assessed as inhibition of clonic seizures at 50 mg/kg,ip administration for 30 mins; assay type: functional; conditions: 0.5 h
Mus musculus [20] = assay: Anticonvulsant activity in Swiss mouse assessed as protection against Sc-PTZ induced seizure at ip administration; assay type: functional
[21] = Toxicity in bicuculline induced Swiss mouse seizure model assessed as death at 50 mg/kg,ip administration for 30 mins; assay type: organism-based; conditions: in vivo, read-out: Activity
Mus musculus [22] = assay: Anticonvulsant activity in mouse assessed as protection against Sc-metrazol induced seizure at po administration; assay type: functional
Rattus norvegicus [23] = assay: Anticonvulsant activity in rat assessed as protection against Sc-metrazol induced seizure at po administration; assay type: functional
Mus musculus [24] = assay: Anticonvulsant activity in Swiss albino mouse assessed as inhibition of maximal electroshock induced seizure at ip administration; assay type: functional
Mus musculus [25] = assay: Anticonvulsant activity in Albino mouse brain assessed as increase in GABA level at 30 to 300 mg/kg,ip by spectrophotometric method; assay type: functional; conditions: dose 30-300 mg/kg
Rattus norvegicus [26] = assay: Anticonvulsant activity against maximal electroshock induced seizure in Wistar albino rat assessed as reduction of time spent in flexion phase at 10 mg/kg,ip administrated for 30 mins by electroconvulsive therapy; assay type: functional; set-up: scale not given: the % may be the effect or the level left; conditions: 0.5 h
Rattus norvegicus [27] = assay: Anticonvulsant activity against maximal electroshock induced seizure in Wistar albino rat assessed as reduction of time spent in extension phase at 10 mg/kg,ip administrated for 30 mins by electroconvulsive therapy; assay type: functional; set-up: scale not given: the % may be the effect or the level left; conditions: 0.5 h
Rattus norvegicus [28] = assay: Anticonvulsant activity against maximal electroshock induced seizure in Wistar albino rat assessed as reduction of time spent in clonus phase at 10 mg/kg,ip administrated for 30 mins by electroconvulsive therapy; assay type: functional; set-up: scale not given: the % may be the effect or the level left; conditions: 0.5 h
Rattus norvegicus [29] = assay: Anticonvulsant activity against maximal electroshock induced seizure in Wistar albino rat assessed as reduction of time spent in stupor phase at 10 mg/kg,ip administrated for 30 mins by electroconvulsive therapy; assay type: functional; set-up: scale not given: the % may be the effect or the level left; conditions: 0.5 h
Rattus norvegicus [30] = assay: Anticonvulsant activity against maximal electroshock induced seizure in Wistar rat assessed as reduction of time spent in extension phase at 50 mg/kg,po administration; assay type: functional
Rattus norvegicus [31] = assay: Anticonvulsant activity in Wistar rat assessed as protection against maximal electroshock induced seizure at po administration for 60 mins; assay type: functional; conditions: 1 h
[32] = Protective index, ratio of TD50 for toxicity in Sc-PTZ induced Swiss albino mouse seizure model assessed as median neurotoxicity dose at po administration by rotorod test to ED50 for anticonvulsant activity in Swiss albino mouse assessed as protection against Sc-PTZ induced seizure at po administration; assay type: organism-based; conditions: in vivo, read-out: Ratio TD50/ED50
Rattus norvegicus [33] = assay: Anticonvulsant activity in rat assessed as protection against maximal electroshock induced seizure at po administration; assay type: functional
[34] = Protective index, ratio of TD50 for toxicity in rat assessed as median toxicity dose at po administration by rotorod test to ED50 for anticonvulsant activity in rat assessed as protection against maximal electroshock induced seizure at po administration; assay type: organism-based; conditions: in vivo, read-out: Ratio TD50/ED50
Mus musculus [35] = assay: Anticonvulsant activity in mouse assessed as protection against maximal electroshock induced seizure at po administration; assay type: functional
[36] = Toxicity in Swiss albino mouse assessed as lethality at 30 mg/kg,ip; assay type: organism-based; conditions: in vivo, read-out: Activity
Mus musculus [37] = assay: Anticonvulsant activity in mouse assessed as protection against maximal electroshock induced seizure at ip administration for 5 mins; assay type: functional
[38] = Protective index, ratio of TD50 for toxicity in CF-1 mouse assessed as median toxicity dose at ip administration upto 4 hrs by rotorod test to ED50 for anticonvulsant activity in CF-1 mouse assessed as protection against maximal electroshock induced seizure at ip administration upto 4 hrs; assay type: organism-based; conditions: in vivo, read-out: Ratio TD50/ED50
[39] = Toxicity in CF-1 mouse assessed as median toxic dose at ip administrated upto 4 hrs; assay type: organism-based; conditions: in vivo

Structure (SMILES): COc1cc(C2CC(c3ccc(O)cc3)=NC(=S)N2C2=NC(=O)NNC2)ccc1O (stereo not given)
- Activity (Mus musculus [1]): 86.17 µg
- ED50 (Mus musculus [2]): 293 mg/kg
- ED50 (Mus musculus [3]): 29.4 mg/kg
- TD50 [4]: 412 mg/kg
- Activity (Mus musculus [5]): 91.47 µg

Structure (SMILES): O=C1Nc2ccc(Cl)cc2C(c2ccccc2)=NC1/N=N/c1ccc(F)cc1 (stereo not given)
- Activity (Mus musculus [6]): 100%

Structure (SMILES): CCCC(CCC)C(=O)O [VALPROIC ACID]
- ED50 (Mus musculus [7]): 131 mg/kg

Structure (SMILES): CC1(C)O[C@H]2CO[C@]3(COS(=O)(=O)N=[N+]=[N-])OC(C)(C)OC3[C@H]2O1 (stereo not given in full)
- inhibition in vivo at 200 mg/kg (Mus musculus [8]): ≥ 80%

Structure (SMILES): CCC(=O)CCCCCN1C(=O)NC2(C1=O)c1ccccc1-c1ccccc12
- Activity (Mus musculus [9]): 100%

Structure (SMILES): CC(=O)OC1Cc2ccccc2N(C(N)=O)c2ccccc21 (stereo not given)
- IC50 [10]: 138 µM
- Activity (Rattus norvegicus [11]): 54.4%
- inhibition (Rattus norvegicus [12]): 61.8%
- inhibition (Rattus norvegicus [13]): 42.2%
- inhibition (Rattus norvegicus [14]): 82.1%

Structure (SMILES): NC(=O)N1c2ccccc2C=Cc2ccccc21 [CARBAMAZEPINE]
- inhibition in vivo at 50 mg/kg (Mus musculus [15]): 0%
- inhibition in vivo at 50 mg/kg (Mus musculus [16]): 80%
- mortality at 0.5 h [17]: 90%
- inhibition in vivo at 50 mg/kg (Mus musculus [18]): 0%
- inhibition in vivo at 50 mg/kg (Mus musculus [19]): 100%
- ED50 (Mus musculus [20]): > 100 mg/kg
- mortality at 0.5 h [21]: 40%

Structure (SMILES): CONC(=O)C1C(C)(C)C1(C)C
- ED50 (Mus musculus [22]): 74 mg/kg
- ED50 (Rattus norvegicus [23]): 35 mg/kg

Structure (SMILES): CCOc1cc(/C=C2/N=C(c3ccccc3)c3cc([N+](=O)[O-])ccc3NC2=O)ccc1O
- inhibition (INH) (Mus musculus [24]): 75%

Structure (SMILES): CN1C(=O)CC(=O)N(c2ccccc2)c2cc(Cl)ccc21 [CLOBAZAM]
- Activity (Mus musculus [25]): 54.9 mg

Structure (SMILES): O=C1N=C(N2C(=S)N=C(c3ccc(F)cc3)CC2c2ccc(O)cc2)CNN1 (stereo not given)
- Activity (Mus musculus [1]): 77.42 µg
- ED50 (Mus musculus [2]): 285 mg/kg
- ED50 (Mus musculus [3]): 22.5 mg/kg
- TD50 [4]: 389 mg/kg
- Activity (Mus musculus [5]): 78.96 µg

Structure (SMILES): CCN(CC)CN1C(=O)/C(=N\c2nnc(-c3cccc(Cl)c3Cl)c(/N=C3\C(=O)N(CN(CC)CC)c4ccc(Cl)cc43)n2)c2cc(Cl)ccc21
- Activity (Rattus norvegicus [26]): 29.31%
- Activity (Rattus norvegicus [27]): 47.87%
- Activity (Rattus norvegicus [28]): 39.4%
- Activity (Rattus norvegicus [29]): 30.21%

Structure (SMILES): CCCC(CCC)C(=O)N/N=C/c1cc(OC)ccc1OC
- TD50 [4]: 457 mg/kg

Structure (SMILES): O=C1Nc2ccc(Cl)cc2C(c2ccccc2)=NC1/N=N/c1ccc(Cl)cc1 (stereo not given)
- Activity (Mus musculus [6]): 100%

Structure (SMILES): O=[N+]([O-])c1ccc(C2CC(c3ccc(Cl)cc3)=Nc3ccccc3N2)cc1 (stereo not given)
- Time (Rattus norvegicus [30]): 7.25 s
- Activity (Rattus norvegicus [31]): 56%

Structure (SMILES): C=C(C)CC(CCC)C(=O)O (racemic)
- selectivity ratio [32]: 2.05

Structure (SMILES): CC1(C)C(C(=O)NC(N)=O)C1(C)C [2,2,3,3-TETRAMETHYLCYCLOPROPANECARBONYLUREA]
- ED50 (Rattus norvegicus [33]): 29 mg/kg
- ED50 (Rattus norvegicus [23]): 92 mg/kg
- selectivity ratio [34]: 18.5
- ED50 (Mus musculus [35]): 90 mg/kg

Structure (SMILES): COc1ccc(/C=C2/N=C(c3ccccc3)c3cc([N+](=O)[O-])ccc3NC2=O)cc1O
- inhibition (INH) (Mus musculus [24]): 70%

Structure (SMILES): O=C1Nc2ccccc2C12Nc1ccccc1-c1nc(=O)c(-c3ccccc3)nn12 (stereo not given)
- mortality [36]: 30%

Structure (SMILES): O=C(NC1CCCCC1)C(c1ccc(Cl)cc1)N1Cc2cnnn2-c2ccccc2C1=O (stereo not given)
- Activity (Mus musculus [37]): 100%

Structure (SMILES): CNS(=O)(=O)OC[C@]12OC[C@@H]3OC(C)(C)O[C@@H]3C1OC(C)(C)O2 (stereo not given in full)
- inhibition in vivo at 200 mg/kg (Mus musculus [8]): ≥ 80%

Structure (SMILES): COC(=O)C1C(=O)C=C(Nc2cc(C)on2)CC1C (stereo not given)
- selectivity ratio at 4 h [38]: > 7.3
- TD50 at 4 h [39]: > 500 mg/kg

Structure (SMILES): COc1cc(/C=C2/N=C(c3ccccc3)c3cc([N+](=O)[O-])ccc3NC2=O)ccc1O
- inhibition (INH) (Mus musculus [24]): 71%
